Measurements taken from patent US7608642B2, “Wound and skin care compositions” (Kimberly-Clark Worldwide, Inc., priority 2002, dated 2009).
Values joined by “and” are separate entries in the source; they are usually repeats but may differ in a detail not shown here. Equal entries are not always repeated. “Also recorded” adds a separate entry of the source.

How the values were obtained:
[1] = test system: human skin keratinocyte cell line (normal human epidermal keratinocytes, neonatal); assay: Proliferation of human skin keratinocytes (Cell Titer 96, absorbance 490 nm); assay type: cell-based; details: for Cell proliferating activity on human keratinocytes (in words): 1×10^−4 M to 1×10^−6 M vs control; for Mean optical density (OD) at 490 nm, cell proliferation / Median optical density (OD) at 490 nm, cell proliferation: 48 hours, KBM, n=5
Description: In addition, 100 μl of vehicle KBM was added to 5 wells as control. […] The spectrophotometric absorbance of each well was read at 490 nm.

[2] = test system: collagen production in the human skin fibroblast cell line; assay: Collagen production in human skin fibroblasts (Takara EIA kit MK101, absorbance 450 nm); assay type: cell-based; details: for Mean optical density (OD) at 450 nm, collagen production / Median optical density (OD) at 450 nm, collagen production: 48 hours, n=2
Description: The cells were first grown in a 96-well assay system using Dulbecco's Modified Eagle's Medium (DMEM) with 10% fetal bovine serum (FBS) both purchased from Sigma Chemical Co, St. Louis, Mo. Serum-free DMEM was used as a control.
The assay was done by using the recommended 20 ul of the supernatant from each well of the 96-well plate. Standard buffer and stop solutions were freshly prepared before running the assay. 100 ul of antibody-POD conjugate solution (supplied with the kit) was added into the wells using pre antibody coated 96 well plate (supplied with the kit). 20 ul of standard and test solutions (from the other 96-well plate containing fibroblasts) were added to appropriate wells. Plate was mixed gently, sealed and incubated for three hrs. at 37° C.
After incubation each well was washed carefully four times with PBS buffer (400 ul). All the wells were completely emptied at the end of washing from any liquid.
100 ul of substrate solution (hydrogen peroxide and tetramethylbenzidine in a buffer solution, supplied with the kit) was added to each well and the plate was incubated for 15 minutes. At this point 100 ul of stop solution (freshly prepared 1N H2SO4) was added to each well in the same order as substrate. The plate was gently mixed and absorbance was read at 450 nm.

[3] = test system: fibronectin production in the human skin fibroblast cell line; assay: Fibronectin production in human skin fibroblasts (Takara EIA kit MK115, absorbance 450 nm); assay type: cell-based; details: for Mean optical density (OD) at 450 nm, fibronectin production / Median optical density (OD) at 450 nm, fibronectin production: 48 hours, n=2
Description: The cells were first grown in a 96-well assay system using Dulbecco's Modified Eagle's Medium (DMEM) with 10% fetal bovine serum (FBS) both purchased from Sigma Chemical Co, St. Louis, Mo. Serum-free DMEM was used as a control. […] The fibronectin assay was performed using the recommended 100 μl of the supernatant from each well of the 96-well plate. Standard buffer and stop solutions were freshly prepared before running the assay. A pre-antibody-coated 96 well plate (provided with the kit) was used to transfer the test samples and control. The plate was mixed, sealed and incubated for 1 hour at 37° C. All the wells were washed after removing sample solutions, 3 times (300 μl) with washing buffer. 100 ul of antibody-POD conjugate solution was added into the wells. Plate was mixed, sealed and incubated for one hour at 37° C. Solutions were removed and the wells were washed 3 times with washing buffer. All the wells were completely emptied at the end of washing from any liquid. 100 μl of substrate solution (hydrogen peroxide and tetramethylbenzidine in a buffered solution) was added to each well and the plate was incubated at room temperature for 15 minutes. 100 μl of stop solution (freshly prepared 1N H2SO4) was added to each well in the same order as substrate. The plate was gently mixed and absorbance was read at 450 nm.

[4] = test system: Swiss Albino mice; assay: Wound healing, full thickness skin wounds (3 mm biopsy punch) in mice; assay type: in vivo, mouse; details: topical 5 μl of 0.2% solution, 5 doses Day 0-2, vs control (WFI)
Description: Twenty, 12-week old Swiss Albino mice were anesthetized with a ketamine/acepromazine cocktail and subjected to four full thickness skin wounds on the dorsolateral surface. […] Jasmonic acid (100 mg) was dissolved in 2 ml ethanol. 200 μl of the resulting solution was then added to 4.8 ml of WFI. Four wounds were made on either side of the spinal column using a 3 mm biopsy punch. To make the wounds, the skin was first tented and the punch was driven through the tented skin to generate both wounds with a single stroke. The upper left quadrant wound site of the animal was assigned to receive the control solution (WFI). […] The wound sites were dosed 5 times (twice on Day 0, Day 1, and once on Day 2). All wounds were treated with 5 μl of test or control solutions. Wounds were allowed to absorb the solutions for 5 minutes before returning the animals to their cages for recovery. All the animals were housed singly. The in-life phase for the animals is 5 days. Each day the wounds on the mice were traced onto glass slides and measured using calipers accurate to the nearest 0.1 mm. Photographs of the wounds were also taken daily for the duration of the study to measure wound size. Means and the standard deviations of the wound diameters for each day were calculated for the healing profile. The effects of the test substances on wound healing were compared to the effects of the control (WFI).

[5] = test system: healthy female volunteers; assay: Dansyl chloride cell renewal study (stratum corneum renewal time); assay type: in vivo, human; details: topical twice daily for two weeks
Excerpt: The stratum corneum renewal time is the time taken for the whole thickness of the stratum corneum to be exfoliated and replaced by new cells from the dividing epidermis. This renewal time is a fundamental indicator of skin health. […] See Jansen L H, Hojyo-Tomoko M T, Kligman A M., Improved fluorescence staining technique for estimating turnover of the human stratum corneum, Br J Dermatol., 90, 9-12, 1974; Ridge B D, Batt M D, Palmer H E, Jarrett A, The dansyl chloride technique for stratum corneum renewal as an indicator of changes in epidermal mitotic activity following topical treatment., Br J Dermatol., 118, 167-74, 1988; Grove G L, Kligman A M, Age-associated changes in human epidermal cell renewal., J Geron., 38, 137-142, 1983. The time required for the dye to disappear is therefore an indication of the turnover time of the stratum corneum. Therefore, any differences in the time required for the dye to disappear from treated and non-treated sites can be considered to be an expression of that product's ability to enhance epidermal renewal.
A dansyl chloride cell renewal study was conducted in healthy female volunteers ranging from 43-64 years of age. The study consisted of a two-week treatment period during which time the products were applied topically twice daily, including on weekend days, to the test sites. The area of application was designated, approximately 5 cm×10 cm on the upper inner arm. The other arm served as a control with no product application. […] Eight females received jasmonic acid and seven females received gibberellic acid.
The time required for a marker dye to disappear was used as the measure of cell renewal rate.

[6] = 1×10^−4 M to 1×10^−6 M vs control

C=C1C[C@]23C[C@@]1(O)CC[C@H]2[C@@]12C=C[C@H](O)[C@@](C)(C(=O)O1)[C@H]2[C@@H]3C(=O)O [gibberellic acid]
Cell proliferating activity on human keratinocytes (in words) [1]: all concentrations of gibberellic acid had a significant effect on cell growth | Cell proliferating activity on human keratinocytes (in words) ([1]; listed as giberrellic acid): strong cell proliferating activity at all concentrations | Mean optical density (OD) at 490 nm, cell proliferation ([1]; 1×10^−4 M): 0.6512 | Median optical density (OD) at 490 nm, cell proliferation ([1]; 1×10^−4 M): 0.6510 | Mean optical density (OD) at 490 nm, cell proliferation ([1]; 1×10^−5 M): 0.8184 | Median optical density (OD) at 490 nm, cell proliferation ([1]; 1×10^−5 M): 0.8210 | Mean optical density (OD) at 490 nm, cell proliferation ([1]; 1×10^−6 M): 0.7854 | Median optical density (OD) at 490 nm, cell proliferation ([1]; 1×10^−6 M): 0.7900 | Stimulation of collagen production (in words) [2, 6]: more profound, particularly at lower, rather than higher, concentrations; also recorded: lower concentrations of gibberellic acid had the most profound effect | Mean optical density (OD) at 450 nm, collagen production ([2]; 1×10^−4 M): 0.7780 | Median optical density (OD) at 450 nm, collagen production ([2]; 1×10^−4 M): 0.7780 | Mean optical density (OD) at 450 nm, collagen production ([2]; 1×10^−5 M): 0.8365 | Median optical density (OD) at 450 nm, collagen production ([2]; 1×10^−5 M): 0.8365 | Mean optical density (OD) at 450 nm, collagen production ([2]; 1×10^−6 M): 0.8630 | Median optical density (OD) at 450 nm, collagen production ([2]; 1×10^−6 M): 0.8630 | Stimulation of fibronectin production (in words) [3, 6]: effective for stimulating fibronectin production in human fibroblasts; also recorded: Both low and high concentrations of gibberellic acid stimulated fibronectin production | Mean optical density (OD) at 450 nm, fibronectin production ([3]; 1×10^−4 M): 0.2150 | Median optical density (OD) at 450 nm, fibronectin production ([3]; 1×10^−4 M): 0.2150 | Mean optical density (OD) at 450 nm, fibronectin production ([3]; 1×10^−5 M): 0.2090 | Median optical density (OD) at 450 nm, fibronectin production ([3]; 1×10^−5 M): 0.2090 | Mean optical density (OD) at 450 nm, fibronectin production ([3]; 1×10^−6 M): 0.2225 | Median optical density (OD) at 450 nm, fibronectin production ([3]; 1×10^−6 M): 0.2225 | Effect on wound closure / wound healing (in words) [4]: accelerated wound healing during the 24 to 48 hrs following treatment | Skin irritation or redness ([5]; 0.25% composition): no visible sign of any skin irritation or redness | Time for cell renewal, treated skin (RENEWAL) ([5]; 0.25% in hyaluronic acid (0.5% aqueous solution), upper inner arm, individual patients, listed as GA): 21 Days and 14 Days (2×) and 12 Days (2×) and 19 Days and 17 Days
